Experimental data reported in patent US11028099B2, “NRF2 activators” (GLAXOSMITHKLINE INTELLECTUAL PROPERTY DEVELOPMENT LIMITED, priority 2016, dated 2021).

Columns and labels:
[1] = system: NQO1 specific activity induction (marker for NRF2 activation) in BEAS-2B cells; test: BEAS-2B NQO1 MTT assay; type: cell-based; conditions: Homo sapiens, 48 hours with compound
Excerpt: NAD(P)H:quinone oxidoreductase 1 (NQO1), also called DT diaphorase, is a homodimeric FAD-containing enzyme that catalyzes obligatory NAD(P)H-dependent two-electron reductions of quinones and protects cells against the toxic and neoplastic effects of free radicals and reactive oxygen species arising from one-electron reductions. The transcription of NQO1 is finely regulated by NRF2, and thus NQO1 activity is a good marker for NRF2 activation. On day one, frozen BEAS-2B cells (ATCC) are thawed in a water bath, counted, and re-suspended at a concentration of 250,000 cells/mL. Fifty microliters of cells are plated in 384 well black clear-bottomed plates. Plates are incubated at 37° C., 5% CO2 overnight. On day two, plates are centrifuged and 50 nL of compound or controls are added to the cells. Plates are then incubated at 37° C., 5% CO2 for 48 hours. On day four, medium is aspirated from the plate and crude cell lysates are made by adding 13 uL of 1× Cell Signaling Technologies lysis buffer with 1 Complete, Mini, EDTA-free Protease Inhibitor Tablet (Roche) for each 10 mL of lysis buffer. After lysis plates are incubated for 20 minutes at room temperature. Two microliters of lysate are removed for use in Cell Titer Glo assay (Promega) and MTT cocktail is prepared (Prochaska et. al. 1998) for measurement of NQO1 activity. Fifty microliters of MTT cocktail is added to each well, plate is centrifuged, and analyzed on an Envision plate reader (Perkin Elmer) using Absorbance 570 nm label for 30 minutes. Product formation is measured kinetically and the EC50 of NQO1 specific activity induction is calculated by plotting the change in absorbance (Delta OD/min) versus the log of compound concentration followed by 3-parameter fitting.

[2] = target: T1, Kelch domain (321-609) of Keap1 / TAMRA-labeled NRF2 ETGE peptide (Homo sapiens, UniProt Q14145); test: NRF2-Keap1 FP assay (Keap1 Kelch fluorescence polarization); type: binding; conditions: Keap1 (321-609) 20 nM, Tamra labelled peptide 8 nM
T1 construct: the Kelch domain (321-609) of Keap1 is used
T1 sequence (Q14145 321-609): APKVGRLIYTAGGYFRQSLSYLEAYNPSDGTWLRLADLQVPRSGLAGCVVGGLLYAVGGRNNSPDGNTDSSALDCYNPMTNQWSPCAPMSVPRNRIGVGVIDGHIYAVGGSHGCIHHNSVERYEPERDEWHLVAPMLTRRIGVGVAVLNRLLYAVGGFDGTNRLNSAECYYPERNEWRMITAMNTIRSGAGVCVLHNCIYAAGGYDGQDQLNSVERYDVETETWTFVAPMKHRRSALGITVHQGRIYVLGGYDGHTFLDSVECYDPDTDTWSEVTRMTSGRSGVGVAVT
Excerpt: NRF2-Keap1 FP Assay One model for the NRF2-Keap1 interaction is through two binding sites in the Neh2 domain on NRF2. The two sites are referred to as the DLG binding motif (latch domain, uM affinity) and the ETGE binding motif (hinge domain, nM affinity). The Keap1 protein consists of an N-terminal region (NTR), a broad complex, tramtrack, and brick a brac domain (BTB), an intervening region (IVR), a double glycine repeat domain (DGR or Kelch), and a C-terminal region. The DLG and ETGE motifs of NRF2's Neh2 domain bind to the Kelch domain of Keap1 at different affinities. In the Keap1 Kelch fluorescence polarization (FP) assay, a TAMRA-labeled 16 mer peptide (AFFAQLQLDEETGEFL) containing the ETGE motif of NRF2 and the Kelch domain (321-609) of Keap1 is used. The assay determines if a compound interferes with the binding between Keap1 […] and the TAMRA-labeled peptide. Binding of TAMRA-labeled NRF2 peptide to Keap1 (321-609) results in a high FP signal. If a compound interferes with the binding between the peptide and the protein, it will cause the assay signal to decrease. Thus, assay signal is inversely proportional to binding inhibition. FP Assay:
100 nl of 100× compound dose response curves (serial 3-fold dilutions) in DMSO are stamped using an Echo liquid handling system (Labcyte) into 384-well low volume black assay plates (Greiner, #784076), with DMSO in columns 6 and 18. […] The plates are spun at 500 rpm for 1 min, incubated for 1 hr at room temperature, and read on an Analyst GT (Molecular Devices) equipped with excitation (530/25 nm) and emission (580/10 nm) filters designed for Tamra probes. […] Fluorescence measurements, represented as mP, are used in the transformation of the data. Compound activity is calculated based on percent inhibition, normalized against controls in the assay (Control 1 contains the Tamra peptide and Keap1 (321-609) together (0% response) and control 2 contains the Tamra peptide alone (100% response)). Data analysis is handled using the software package Abase XE (Surrey, United Kingdom. The % inhibition values are calculated by the equation: […]

Dog PK study = type: in vivo; conditions: for Dog PK Fpo: male beagle dogs, nominal 1 mg/kg, oral gavage solution vs 60-minute intravenous infusion, cassette, non-crossover
Experimental: One hundred nanoliters of 100× compound dose response curves (serial 3-fold dilutions) in DMSO are stamped using an Echo liquid handling system (Labcyte) into 384-well, low volume, black assay plates (Greiner, #784076), with DMSO in columns 6 and 18. The top concentration of compound is located in columns 1 and 13. All reagents are diluted in assay buffer (50 mM Tris, pH 8.0, 5 mM MgCl2, 100 mM NaCl, 0.005% BSA, 1 mM DTT, and 2 mM CHAPS). The BSA, DTT, and CHAPS are added to the assay buffer on the day of assay. Using a Multidrop Combi (Thermo Electron Corporation) equipped with a metal tip dispenser, 5 ul of 25 nM Keap1-FlagHis protein is added to all wells of the compound plate, with the exception of the wells in column 18. Wells in column 18 receive 5 ul of assay buffer instead. Plates are centrifuged at 500 rpm for 1 minute, covered with a plate lid, and incubated at 37° C. for 2.25 hours. Plates are then removed from the incubator and allowed to cool to RT for 15 minutes. Five microliters of 50 nM biotin-NRF2 protein is then added to all wells of the plates and the plates are spun at 500 rpm for 1 minute, followed by incubating at 4° C. for 1.25 hours. The plates are then allowed to warm to RT for 15 minutes, followed by the addition of 10 ul of detection mix (1 nM Streptavidin Eu+ W1024 and 5 ug/ml mouse anti-DYKDDDDK IgG conjugated to SureLight APC antibody; both from Columbia Biosciences) to all wells. Plates are spun at 500 rpm for 1 minute, incubated for 1 hour at RT, and read on an Envision plate reader using a 320 nm excitation filter and 615 nm and 665 nm emission filters. Compound response (% inhibition) and potency (pIC50) are calculated based on the ratio of the two emissions (665 nm/615 nm) and then the transformed data is normalized against controls in the assay (control 1=1% DMSO in the presence of NRF2 and Keap1 protein and control 2=1% DMSO in the absence of protein). Data analysis is handled using the software package Abase XE (Surrey, United Kingdom). The % inhibition values are calculated from the ratio (transformed) data by the equation: 100−(100*(compound response−average control 2)/(average control 1−average control2)). For calculation of pIC50s, Abase XE uses a four parameter equation. Dog PK Study
All studies were conducted after review by the GSK Institutional Animal Care and Use Committee and in accordance with the GSK Policy on the Care, Welfare and Treatment of Laboratory Animals. A pre-study health examination that included a physical exam and complete blood count was performed on the animals prior to use on study. A catheter was temporarily placed in a cephalic or saphenous vein for sample collection on the study day. The animals were fasted overnight prior to dosing; food provided after the 4-hour blood sample was collected. The intravenous and oral solution pharmacokinetic studies were carried out using a non-crossover design; a total of four male beagle dogs were used, two per route of administration.
The dose for intravenous administration was prepared as a cassette of up to five test compounds in 20% Cavitron™ and 5% DMSO. The intravenous dose formulation was filtered through a 0.22-micron polytetrafluoroethylene (PTFE) filter prior to administration. The dose for oral solution administration was prepared as a cassette of up to five compounds in 6% Cavitron™ and 5% DMSO and was filtered through a 0.22 micron VWR PTFE filter prior to administration. […]

Rat PK = type: in vivo; conditions: oral bioavailability
[3] = target: T2, full length Keap1 protein / full length NRF2 protein (Homo sapiens, UniProt Q14145); test: NRF2-Keap1 TR-FRET assay; type: binding; conditions: full length Keap1-FlagHis and biotin-NRF2
T2 construct: full length NRF2 protein and full length Keap1 protein (Keap1 exists a dimer) are used
T2 sequence (Q14145 whole entry): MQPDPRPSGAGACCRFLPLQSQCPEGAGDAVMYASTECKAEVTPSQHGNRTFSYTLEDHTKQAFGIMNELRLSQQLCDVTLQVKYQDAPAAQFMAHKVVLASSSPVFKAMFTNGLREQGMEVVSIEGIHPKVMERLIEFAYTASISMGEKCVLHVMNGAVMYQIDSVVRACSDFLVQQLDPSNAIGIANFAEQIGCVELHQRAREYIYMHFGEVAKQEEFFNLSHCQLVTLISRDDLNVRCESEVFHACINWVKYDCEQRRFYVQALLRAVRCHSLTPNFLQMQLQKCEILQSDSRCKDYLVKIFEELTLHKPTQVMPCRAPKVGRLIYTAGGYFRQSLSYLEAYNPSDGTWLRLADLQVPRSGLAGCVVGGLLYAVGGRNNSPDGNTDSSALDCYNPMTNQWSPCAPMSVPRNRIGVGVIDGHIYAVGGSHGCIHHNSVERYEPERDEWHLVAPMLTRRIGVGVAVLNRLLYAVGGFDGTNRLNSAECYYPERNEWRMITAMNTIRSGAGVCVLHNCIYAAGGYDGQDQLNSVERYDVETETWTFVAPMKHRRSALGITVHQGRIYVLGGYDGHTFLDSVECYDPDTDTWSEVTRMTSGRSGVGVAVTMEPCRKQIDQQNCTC
Excerpt: In the NRF2-Keap1 TR-FRET (time-resolved fluorescence resonance energy transfer) assay, full length NRF2 protein and full length Keap1 protein (Keap1 exists a dimer) are used. The assay detects the ability of compound to displace the binding of FlagHis-tagged Keap1 with biotinylated, Avi-tagged NRF2 protein. Biotin-NRF2 binds to streptavidin-europium (a component of the detection mix) and Keap1-FlagHis is recognized by anti-Flag APC (allophycocyanin) antibody (also a component of the detection mix). If binding occurs between the two proteins, there will be an energy transfer from the Eu+3 (donor) at 615 nm to the APC (acceptor) at 665 nm. A potential Keap1 inhibitor will cause a reduction in the TR-FRET signal by interfering with the binding of Keap1 to NRF2.
One hundred nanoliters of 100× compound dose response curves (serial 3-fold dilutions) in DMSO are stamped using an Echo liquid handling system (Labcyte) into 384-well, low volume, black assay plates (Greiner, #784076), with DMSO in columns 6 and 18. The top concentration of compound is located in columns 1 and 13. All reagents are diluted in assay buffer (50 mM Tris, pH 8.0, 5 mM MgCl2, 100 mM NaCl, 0.005% BSA, 1 mM DTT, and 2 mM CHAPS). The BSA, DTT, and CHAPS are added to the assay buffer on the day of assay. […] Plates are spun at 500 rpm for 1 minute, incubated for 1 hour at RT, and read on an Envision plate reader using a 320 nm excitation filter and 615 nm and 665 nm emission filters. Compound response (% inhibition) and potency (pIC50) are calculated based on the ratio of the two emissions (665 nm/615 nm) and then the transformed data is normalized against controls in the assay (control 1=1% DMSO in the presence of NRF2 and Keap1 protein and control 2=1% DMSO in the absence of protein). […] The % inhibition values are calculated from the ratio (transformed) data by the equation: 100−(100*(compound response−average control 2)/(average control 1−average control2)). […]

Structure (SMILES) | EC50 [1] [nM] | IC50 [2] [nM] | Dog PK Fpo (Dog PK study) [%] | Dog PK Fpo (Dog PK study; listed as S-isomer) [%] | Rat PK Fpo (Rat PK) [%] | IC50 [3] [nM] | difference in the dog oral bioavailability (Dog PK study; compound of the invention versus the S-isomer, dog) [fold] | Dog PK Fpo (Dog PK study; listed as compound of the invention) [%]
CC[C@@H]1CN(Cc2cc([C@H](CC(=O)O)c3ccc4c(nnn4C)c3C)ccc2C)Cc2ncccc2O1 [S-beta-stereocenter isomer, (S)-3-(1,4-dimethyl-1H-benzo[d][1,2,3]triazol-5-yl)-3-(3-(((R)-2-ethyl-2,3-dihydropyrido[2,3-f][1,4]oxazepin-4(5H)-yl)methyl)-4-methylphenyl)propanoic acid] | 16 | 50 | 11 | 11 | 78 | 12 | – | –
CC[C@@H]1CN(Cc2cc([C@@H](CC(=O)O)c3ccc4c(nnn4C)c3C)ccc2C)Cc2ncccc2O1 [Formula (I) R-beta-stereocenter isomer, (R)-3-(1,4-dimethyl-1H-benzo[d][1,2,3]triazol-5-yl)-3-(3-(((R)-2-ethyl-2,3-dihydropyrido[2,3-f][1,4]oxazepin-4(5H)-yl)methyl)-4-methylphenyl)propanoic acid] | 20 | 40 | 52 | – | 129 | 16 | ~5 | 52
CC[C@@H]1CN(Cc2cc(C(CC(=O)O)c3ccc4c(nnn4C)c3C)ccc2C)Cc2ncccc2O1 (mixture of isomers) [Beta-stereocenter 50/50 mixture, 3-(1,4-Dimethyl-1H-benzo[d][1,2,3]triazol-5-yl)-3-(3-(((R)-2-ethyl-2,3-dihydropyrido[2,3-t][1,4]oxazepin-4(5H)-yl)methyl)-4-methylphenyl)propanoic acid] | 20 | 63 | – | – | 177 | 25 | – | –
